# According to patent US9067943B2, “[1,2,3]triazolo[4,5-D]pyrimidine derivatives” (priority 2011, dated 2015):
# Where two headings read alike, the source gives them in different places.
# Tests used:
# human CB1 receptors = molecular target: T1, human CB1 receptors (Homo sapiens, UniProt P21554); assay: cAMP assay; assay type: cell-based
# T1 construct: expressed in transfected cells; host or cells: CHO cells
# Procedure, shortened: (§1)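 CHO cells expressing human CB1 or CB2 were preincubated 30 min at 30 °C in Krebs Ringer bicarbonate buffer with 1 mM IBMX, then exposed to compounds for 30 min at 30 °C. cAMP was measured by time-resolved FRET against a cAMP standard curve, and EC50 values were derived.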
# human CB2 receptors = molecular target: T2, human CB2 receptors (Homo sapiens, UniProt P34972); assay: cAMP assay; assay type: cell-based
# T2 construct: expressed in transfected cells; host or cells: CHO cells
# T2 sequence (P34972 whole entry): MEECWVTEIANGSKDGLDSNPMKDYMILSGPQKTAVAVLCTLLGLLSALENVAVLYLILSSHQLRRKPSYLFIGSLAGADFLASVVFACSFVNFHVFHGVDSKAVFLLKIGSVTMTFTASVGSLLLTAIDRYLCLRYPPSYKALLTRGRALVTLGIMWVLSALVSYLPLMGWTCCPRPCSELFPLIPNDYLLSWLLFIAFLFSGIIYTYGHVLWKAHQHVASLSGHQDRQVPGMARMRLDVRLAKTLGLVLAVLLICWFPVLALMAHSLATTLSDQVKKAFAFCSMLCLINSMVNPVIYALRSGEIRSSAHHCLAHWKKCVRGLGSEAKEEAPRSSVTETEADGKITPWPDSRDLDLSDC
# Procedure, shortened: as §1
# [1] = functional cAMP assay, CHO cells expressing human CB2, read-out: human CB2 EC50
# T1 sequence (P21554 whole entry): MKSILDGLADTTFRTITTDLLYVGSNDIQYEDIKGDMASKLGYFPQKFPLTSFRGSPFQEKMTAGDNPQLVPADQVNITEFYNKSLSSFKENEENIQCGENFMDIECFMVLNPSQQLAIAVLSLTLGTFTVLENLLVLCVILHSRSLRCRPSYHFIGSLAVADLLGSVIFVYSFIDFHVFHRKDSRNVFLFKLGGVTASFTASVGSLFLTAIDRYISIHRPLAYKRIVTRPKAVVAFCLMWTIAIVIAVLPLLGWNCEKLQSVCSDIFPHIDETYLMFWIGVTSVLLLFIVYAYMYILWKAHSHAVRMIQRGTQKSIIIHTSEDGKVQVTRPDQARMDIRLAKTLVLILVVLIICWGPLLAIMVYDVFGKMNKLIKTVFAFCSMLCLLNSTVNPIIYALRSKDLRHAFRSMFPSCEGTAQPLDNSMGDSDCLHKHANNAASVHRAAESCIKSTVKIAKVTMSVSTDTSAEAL
Compound,EC50 (human CB1 receptors) [nM],EC50 (human CB2 receptors) [nM],EC50 (human CB2 receptors; [1]) [nM]
"CC(C)(C)c1nc(N2CC[C@](C)(O)C2)c2nn(Cc3ncccc3Cl)nc2n1 [Example 127-a, (S)-1-[5-tert-Butyl-2-(3-chloro-pyridin-2-ylmethyl)-2H-[1,2,3]triazolo[4,5-d]pyrimidin-7-yl]-3-methyl-pyrrolidin-3-ol]",757,5.1,–
"CC(C)(C)c1nc(N2CC[C@@](C)(O)C2)c2nn(Cc3ncccc3Cl)nc2n1 [Example 127-b, (R)-1-[5-tert-Butyl-2-(3-chloro-pyridin-2-ylmethyl)-2H-[1,2,3]triazolo[4,5-d]pyrimidin-7-yl]-3-methyl-pyrrolidin-3-ol]",609,11.9,–
"Cc1nnc(Cn2nc3nc(C(C)(C)C)nc(N4CC[C@](C)(O)C4)c3n2)o1 [Example 128-a, (S)-1-[5-tert-Butyl-2-(5-methyl-[1,3,4]oxadiazol-2-ylmethyl)-2H-[1,2,3]triazolo[4,5-d]pyrimidin-7-yl]-3-methyl-pyrrolidin-3-ol]",> 10000,70.2,–
"Cc1nnc(Cn2nc3nc(C(C)(C)C)nc(N4CC[C@@](C)(O)C4)c3n2)o1 [Example 128-b, (R)-1-[5-tert-Butyl-2-(5-methyl-[1,3,4]oxadiazol-2-ylmethyl)-2H-[1,2,3]triazolo[4,5-d]pyrimidin-7-yl]-3-methyl-pyrrolidin-3-ol]",> 10000,789,–
"Cc1noc(Cn2nc3nc(C(C)(C)C)nc(N4CC[C@](C)(O)C4)c3n2)n1 [Example 129-a, (S)-1-[5-tert-Butyl-2-(3-methyl-[1,2,4]oxadiazol-5-ylmethyl)-2H-[1,2,3]triazolo[4,5-d]pyrimidin-7-yl]-3-methyl-pyrrolidin-3-ol]",> 10000,–,197
"Cc1noc(Cn2nc3nc(C(C)(C)C)nc(N4CC[C@@](C)(O)C4)c3n2)n1 [Example 129-b, (R)-1-[5-tert-Butyl-2-(3-methyl-[1,2,4]oxadiazol-5-ylmethyl)-2H-[1,2,3]triazolo[4,5-d]pyrimidin-7-yl]-3-methyl-pyrrolidin-3-ol]",> 10000,–,316
"Cn1nnnc1Cn1nc2nc(C(C)(C)C)nc(N3CC[C@](C)(O)C3)c2n1 [Example 130-a, (S)-1-[5-tert-Butyl-2-(1-methyl-1H-tetrazol-5-ylmethyl)-2H-[1,2,3]triazolo[4,5-d]pyrimidin-7-yl]-3-methyl-pyrrolidin-3-ol]",> 10000,–,172
"Cn1nnnc1Cn1nc2nc(C(C)(C)C)nc(N3CC[C@@](C)(O)C3)c2n1 [Example 130-b, (R)-1-[5-tert-Butyl-2-(1-methyl-1H-tetrazol-5-ylmethyl)-2H-[1,2,3]triazolo[4,5-d]pyrimidin-7-yl]-3-methyl-pyrrolidin-3-ol]",> 10000,–,798
"Cc1nonc1Cn1nc2nc(C(C)(C)C)nc(N3CC[C@](C)(O)C3)c2n1 [Example 131-a, (S)-1-[5-tert-Butyl-2-(4-methyl-furazan-3-ylmethyl)-2H-[1,2,3]triazolo[4,5-d]pyrimidin-7-yl]-3-methyl-pyrrolidin-3-ol]",> 10000,10.2,–
"Cc1nonc1Cn1nc2nc(C(C)(C)C)nc(N3CC[C@@](C)(O)C3)c2n1 [Example 131-b, (R)-1-[5-tert-Butyl-2-(4-methyl-furazan-3-ylmethyl)-2H-[1,2,3]triazolo[4,5-d]pyrimidin-7-yl]-3-methyl-pyrrolidin-3-ol]",> 10000,61.4,–
"CC(C)(C)c1nc(N2CC[C@](C)(O)C2)c2nn(CCC(F)(F)F)nc2n1 [Example 132-a, (S)-1-[5-tert-Butyl-2-(3,3,3-trifluoro-propyl)-2H-[1,2,3]triazolo[4,5-d]pyrimidin-7-yl]-3-methyl-pyrrolidin-3-ol]",> 10000,18.1,–
"CC(C)(C)c1nc(N2CC[C@@](C)(O)C2)c2nn(CCC(F)(F)F)nc2n1 [Example 132-b, (R)-1-[5-tert-Butyl-2-(3,3,3-trifluoro-propyl)-2H-[1,2,3]triazolo[4,5-d]pyrimidin-7-yl]-3-methyl-pyrrolidin-3-ol]",> 10000,69.8,–
"CC(C)(C)c1nc(N2CC[C@](C)(O)C2)c2nn(Cc3nnnn3C3CC3)nc2n1 [Example 133-a, (S)-1-[5-tert-Butyl-2-(1-cyclopropyl-1H-tetrazol-5-ylmethyl)-2H-[1,2,3]triazolo[4,5-d]pyrimidin-7-yl]-3-methyl-pyrrolidin-3-ol]",> 10000,–,126
"CC(C)(C)c1nc(N2CC[C@@](C)(O)C2)c2nn(Cc3nnnn3C3CC3)nc2n1 [Example 133-b, (R)-1-[5-tert-Butyl-2-(1-cyclopropyl-1H-tetrazol-5-ylmethyl)-2H-[1,2,3]triazolo[4,5-d]pyrimidin-7-yl]-3-methyl-pyrrolidin-3-ol]",> 10000,–,547
"CC(=O)N[C@H]1CCN(c2nc(OCC(C)(C)C)nc3nn(Cc4ccccc4Cl)nc23)C1 [Example 134, N—{(S)-1-[2-(2-Chloro-benzyl)-5-(2,2-dimethyl-propoxy)-2H-[1,2,3]triazolo[4,5-d]pyrimidin-7-yl]-pyrrolidin-3-yl}-acetamide]",> 10000,–,682
"CC(=O)N[C@H]1CCN(c2nc(OCC(C)(C)C)nc3nn(Cc4ncccc4Cl)nc23)C1 [Example 135, N—{(S)-1-[2-(3-Chloro-pyridin-2-ylmethyl)-5-(2,2-dimethyl-propoxy)-2H-[1,2,3]triazolo[4,5-d]pyrimidin-7-yl]-pyrrolidin-3-yl}-acetamide]",> 10000,–,606
"CC(C)(C)Nc1nc(N2CCC(F)(F)C2)c2nn(Cc3ccccc3C(F)(F)F)nc2n1 [Example 136, tert-Butyl-[7-(3,3-difluoro-pyrrolidin-1-yl)-2-(2-trifluoromethyl-benzyl)-2H-[1,2,3]triazolo[4,5-d]pyrimidin-5-yl]-amine]",> 10000,35,–
"CC(C)(C)Nc1nc(N2CCC(F)(F)C2)c2nn(Cc3ccccc3S(C)(=O)=O)nc2n1 [Example 137, tert-Butyl-[7-(3,3-difluoro-pyrrolidin-1-yl)-2-(2-methanesulfonyl-benzyl)-2H-[1,2,3]triazolo[4,5-d]pyrimidin-5-yl]-amine]",> 10000,5.3,–
"CC(C)(C)Nc1nc(N2CCC(F)(F)C2)c2nn(Cc3ncccc3Cl)nc2n1 [Example 138, tert-Butyl-[2-(3-chloro-pyridin-2-ylmethyl)-7-(3,3-difluoro-pyrrolidin-1-yl)-2H-[1,2,3]triazolo[4,5-d]pyrimidin-5-yl]-amine]",> 10000,54,–
"Cn1nnnc1Cn1nc2nc(NC(C)(C)C)nc(N3CCC(F)(F)C3)c2n1 [Example 139, tert-Butyl-[7-(3,3-difluoro-pyrrolidin-1-yl)-2-(1-methyl-1H-tetrazol-5-ylmethyl)-2H-[1,2,3]triazolo[4,5-d]pyrimidin-5-yl]-amine]",> 10000,28.1,–
"Cc1nonc1Cn1nc2nc(NC(C)(C)C)nc(N3CCC(F)(F)C3)c2n1 [Example 140, tert-Butyl-[7-(3,3-difluoro-pyrrolidin-1-yl)-2-(4-methyl-furazan-3-ylmethyl)-2H-[1,2,3]triazolo[4,5-d]pyrimidin-5-yl]-amine]",> 10000,6.1,–
"CC(=O)N[C@H]1CCN(c2nc(O[C@@H](C)C(F)(F)F)nc3nn(Cc4ccccc4Cl)nc23)C1 [Example 141, N—{(S)-1-[2-(2-Chloro-benzyl)-5-((S)-2,2,2-trifluoro-1-methyl-ethoxy)-2H-[1,2,3]triazolo[4,5-d]pyrimidin-7-yl]-pyrrolidin-3-yl}-acetamide]",> 10000,–,1150
"CC(=O)N[C@H]1CCN(c2nc(O[C@@H](C)C(F)(F)F)nc3nn(Cc4ccccc4C(F)(F)F)nc23)C1 [Example 142, N—{(S)-1-[2-(2-Trifluoromethyl-benzyl)-5-((S)-2,2,2-trifluoro-1-methyl-ethoxy)-2H-[1,2,3]triazolo[4,5-d]pyrimidin-7-yl]-pyrrolidin-3-yl}-acetamide]",> 10000,–,1110
"CC(=O)N[C@H]1CCN(c2nc(O[C@@H](C)C(F)(F)F)nc3nn(Cc4ccccc4S(C)(=O)=O)nc23)C1 [Example 143, N—{(S)-1-[2-(2-Methanesulfonyl-benzyl)-5-((S)-2,2,2-trifluoro-1-methyl-ethoxy)-2H-[1,2,3]triazolo[4,5-d]pyrimidin-7-yl]-pyrrolidin-3-yl}-acetamide]",> 10000,–,1730
"CC(=O)N[C@H]1CCN(c2nc(NC(C)(C)C)nc3nn(Cc4ccccc4Cl)nc23)C1 [Example 144, N—{(S)-1-[5-tert-Butylamino-2-(2-chloro-benzyl)-2H-[1,2,3]triazolo[4,5-d]pyrimidin-7-yl]-pyrrolidin-3-yl}-acetamide]",> 10000,–,1950
"Cn1nnnc1Cn1nc2nc(NC(C)(C)C)nc(N3CC[C@H](O)C3)c2n1 [Example 145, (S)-1-[5-tert-Butylamino-2-(1-methyl-1H-tetrazol-5-ylmethyl)-2H-[1,2,3]triazolo[4,5-d]pyrimidin-7-yl]-pyrrolidin-3-ol]",> 10000,–,1090
